From patent US11560391B2, “Sulfonylurea compounds as inhibitors of interleukin-1 activity” (Genentech, Inc., priority 2018, dated 2023)
pIC50: −log10 of the molar value. Like-named read-outs stand apart in the source and are kept apart here.

Target: T1, NLRP3 inflammasome (Homo sapiens, UniProt Q96P20)
T1 construct: freshly isolated from human peripheral blood from healthy donors; StemCells Technologies; host or cells: primary human PBMCs
Experiment: NLRP3 inflammasome activation assay in LPS-primed, nigericin-stimulated PBMCs, IL-1β release
Type: cell-based
Details: 10 μM nigericin; for IC50: LPS 100 ng/mL priming; for pIC50: PBMC, LPS priming, read-out: PMBC IL-1β IC50
Description: Some of the following assays were used to determine the inhibitory activity of the compounds on the NLRP3 inflammasome using a common inflammasome activation stimuli-nigericin.
Human peripheral blood mononuclear cells (PBMCs), consisting of lymphocytes (T, B and NK cells), monocytes and dendritic cells, are freshly isolated from human peripheral blood from healthy donors. Cells are obtained through an IRB approved donor program by iXCells Biotechnologies where all the donors are tested for bacterial and viral infections. Cells are purified from peripheral blood using ficoll gradient centrifugation.
Fresh or cryopreserved PMBCs are seeded in V-bottom 96-well plate at 0.5-1×10^5 cells per well and incubated overnight at 37° C. with 5% CO2 in RPMI 1640 medium with GlutaMAX supplement, 4.5 g/L D-glucose, 10% Fetal Bovine Serum (FBS), […] Sodium Pyruvate, 1% Penicillin/Streptomycin, 10 mM HEPES and 0.05 mM of […]. Freshly isolated or cryopreserved KCs cells are seeded in flat-bottom 96-well plates at 0.6-1.5×10^5 cells/well and incubated overnight at 37° C., 5% CO2 in RPMI 1640 Medium with GlutaMAX supplement, FBS, 1% Penicillin/Streptomycin and 10 mM HEPES. The following day, the cells are primed with 100 ng/mL of lipopolysaccharides (LPS; Sigma Aldrich) in FBS-free RPMI 1640 for 3 h. After the priming step, the media is removed and PBMCs are pre-incubated with serial concentrations of test compounds (0.00017-10 uM) or vehicle (DMSO) for 30 min in FBS-free media prior to addition of the NLRP3 activator. Cells are then stimulated with 10 μM Nigericin (Sigma Aldrich; InvivoGen) for 1.5 h. Plates were centrifuged at 1,500 rpm for 3 minutes to pellet cells and supernatant was transferred into new plates for subsequent experiments.
For ELISA assays cells are seeded into 96-well plates. Post study, supernatants are removed and the levels of mature IL-1β, IL18 and TNFα (Quantikine ELISA, R&D systems) are measured in cell conditioned media by ELISA according to manufacturer's instructions.
Human frozen PBMCs were purchased from StemCells Technologies. Cells were rapidly thawed in 37° C. water bath and resuspended in fresh assay media consisting of RPMI 1640 Medium containing 1% sodium pyruvate, 10 mM HEPES, 2.5 g/L glucose and 55 μM 2-Mercaptoethanol. Cell density was adjusted to 8.1×10^5 cells/mL. Cells were primed by adding lipopolysaccharide (Invivogen Ultrapure lipopolysaccharide from E. coli, tlrl-3pelps) at a final concentration of 100 ng/mL in cell suspension. 37 μL of cell suspension with LPS was seeded per well of a 384 well plate and incubated for 3 hours at 37° C. and 5% CO2. After priming, PBMCs were preincubated with serially diluted test compounds with starting concentration of 40 μM followed by 2-fold dilution for a 20-point curve or vehicle (DMSO) for 30 min in assay media at 37° C. and 5% CO2. Cells were then stimulated with 10 μM nigericin (Invivogen, tlrl-nig-5) for 90 min at 37° C. and 5% CO2 to activate NLRP3 dependent inflammasome pathway and IL-1β release in cell culture supernatant. Cells were centrifuged at 1200 RPM for 1 min and 40 μL of supernatant was transferred into fresh plates and stored at −80° C. until IL-1β analysis.
16 μL of supernatant was added to white 384 well HTRF plates, followed by addition of 4 μL of HTRF cocktail in each well. Plates were quickly centrifuged, sealed and incubated overnight at room temperature. Next day, HTRF signal was read on a Pherastar and ratio of 665/620 was calculated based on manufacturer's protocol to obtain concentration of IL-1β in cell culture supernatant.

[1] = read-out: IL-1B pIC50 (converted)

T1 sequence (Q96P20 whole entry): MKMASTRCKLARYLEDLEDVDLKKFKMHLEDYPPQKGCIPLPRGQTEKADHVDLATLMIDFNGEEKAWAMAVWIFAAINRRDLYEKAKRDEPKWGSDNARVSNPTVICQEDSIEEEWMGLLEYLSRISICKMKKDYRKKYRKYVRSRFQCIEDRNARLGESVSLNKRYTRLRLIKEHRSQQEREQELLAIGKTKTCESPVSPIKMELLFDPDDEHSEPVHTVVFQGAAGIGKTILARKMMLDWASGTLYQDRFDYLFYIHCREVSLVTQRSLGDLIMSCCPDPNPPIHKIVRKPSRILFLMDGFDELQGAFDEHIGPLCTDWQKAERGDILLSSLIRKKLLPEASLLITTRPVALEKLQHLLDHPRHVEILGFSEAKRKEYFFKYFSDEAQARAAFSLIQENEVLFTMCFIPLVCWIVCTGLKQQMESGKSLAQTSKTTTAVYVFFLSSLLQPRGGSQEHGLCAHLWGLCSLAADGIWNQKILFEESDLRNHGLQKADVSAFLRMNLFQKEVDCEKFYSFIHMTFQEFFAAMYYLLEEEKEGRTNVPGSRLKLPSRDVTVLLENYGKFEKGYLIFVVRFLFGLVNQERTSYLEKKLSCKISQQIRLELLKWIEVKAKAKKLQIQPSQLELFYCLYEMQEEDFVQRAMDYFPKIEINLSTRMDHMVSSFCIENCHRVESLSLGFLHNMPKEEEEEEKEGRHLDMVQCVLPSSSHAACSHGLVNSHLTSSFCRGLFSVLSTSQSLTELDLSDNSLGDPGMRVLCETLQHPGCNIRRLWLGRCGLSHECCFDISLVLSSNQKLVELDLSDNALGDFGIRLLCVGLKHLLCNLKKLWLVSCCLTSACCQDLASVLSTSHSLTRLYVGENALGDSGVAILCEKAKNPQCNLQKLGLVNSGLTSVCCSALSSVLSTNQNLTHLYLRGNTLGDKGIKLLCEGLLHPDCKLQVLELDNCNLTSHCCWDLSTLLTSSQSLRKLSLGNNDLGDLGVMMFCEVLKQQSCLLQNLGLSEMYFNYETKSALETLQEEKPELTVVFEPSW

SMILES | IC50 [1] | pIC50 | further results
CC1CCCC(C)N1NC(=O)NS(=O)(=O)c1cnn2c1OCCC2 (stereo not shown) | > 10 µM | – | –
O=C(NN1CCOc2ccccc21)NS(=O)(=O)c1cnn2c1OCCC2 | > 10 µM | – | –
O=C(NN1CC2CCCC2C1)NS(=O)(=O)c1cnn2c1OCCC2 (stereo not shown) | > 10 µM | – | –
CC1CCCC(C)N1NC(=O)NS(=O)(=O)c1cnn2c1OCCC2 (mixture of isomers) [Example 7, N-((2,6-dimethylpiperidin-1-yl)carbamoyl)-6,7-dihydro-5H-pyrazolo[5,1-b][1,3]oxazine-3-sulfonamide] | – | < 5.00 | –
O=C(NC1CCOc2ccccc21)NS(=O)(=O)c1cnn2c1OCCC2 (racemic) [Example 9, N-(chroman-4-ylcarbamoyl)-6,7-dihydro-5H-pyrazolo[5,1-b][1,3]oxazine-3-sulfonamide] | – | < 5.00 | –
O=C(NN1CC2CCCC2C1)NS(=O)(=O)c1cnn2c1OCCC2 (single isomer, unassigned) [Example 13a, N-((hexahydrocyclopenta[c]pyrrol-2(1H)-yl)carbamoyl)-6,7-dihydro-5H-pyrazolo[5,1-b][1,3]oxazine-3-sulfonamide] | – | < 5.00 | –
CC1(C)CCc2ccccc2C1NC(=O)NS(=O)(=O)c1cnn2c1OCCC2 (stereo not shown) [Example 1, N-((2,2-dimethyl-1,2,3,4-tetrahydronaphthalen-1-yl)carbamoyl)-6,7-dihydro-5H-pyrazolo[5,1-b][1,3]oxazine-3-sulfonamide] | – | < 5.00 | –
O=C(NC1c2ccccc2CC12CCOCC2)NS(=O)(=O)c1cnn2c1OCCC2 (stereo not shown) [Example 2, N-((1,2′,3,3′,5′,6′-hexahydrospiro[indene-2,4′-pyran]-1-yl)carbamoyl)-6,7-dihydro-5H-pyrazolo[5,1-b][1,3]oxazine-3-sulfonamide] | – | < 5.00 | –
O=C(NC1c2ccccc2-c2ccccc21)NS(=O)(=O)c1cnn2c1OCCC2 [Example 5, N-((9H-fluoren-9-yl)carbamoyl)-6,7-dihydro-5H-pyrazolo[5,1-b][1,3]oxazine-3-sulfonamide] | – | < 5.00 | –
CC1Cc2ccccc2C1NC(=O)NS(=O)(=O)c1cnn2c1OCCC2 (stereo not shown) [Example 6, N-((2-methyl-2,3-dihydro-1H-inden-1-yl)carbamoyl)-6,7-dihydro-5H-pyrazolo[5,1-b][1,3]oxazine-3-sulfonamide] | – | < 5.00 | –
O=C(Nc1c(-c2ccccc2)nc2ccccn12)NS(=O)(=O)c1cnn2c1OCCC2 [Example 10, N-((2-phenylimidazo[1,2-a]pyridin-3-yl)carbamoyl)-6,7-dihydro-5H-pyrazolo[5,1-b][1,3]oxazine-3-sulfonamide] | – | < 5.00 | –
O=C(NC1(c2ccccc2)CCCCCC1)NS(=O)(=O)c1cnn2c1OCCC2 [Example 12, N-((1-phenylcycloheptyl)carbamoyl)-6,7-dihydro-5H-pyrazolo[5,1-b][1,3]oxazine-3-sulfonamide] | – | < 5.00 | –
O=C(NN1CCCCCC1)NS(=O)(=O)c1cnn2c1OCCC2 [Example 14, N-(azepan-1-ylcarbamoyl)-6,7-dihydro-5H-pyrazolo[5,1-b][1,3]oxazine-3-sulfonamide] | – | < 5.00 | –
O=C(NC(c1ccccc1)c1ccccc1)NS(=O)(=O)c1cnn2c1OCCC2 [Example 15, N-(benzhydrylcarbamoyl)-6,7-dihydro-5H-pyrazolo[5,1-b][1,3]oxazine-3-sulfonamide] | – | < 5.00 | –
Cc1ccc(Br)c(NC(=O)NS(=O)(=O)c2cnn3c2OCCC3)n1 [Example 20, N-((3-bromo-6-methylpyridin-2-yl)carbamoyl)-6,7-dihydro-5H-pyrazolo[5,1-b][1,3]oxazine-3-sulfonamide] | – | < 5.00 | –
CC(C)c1nn(C)c(C(C)C)c1NC(=O)NS(=O)(=O)c1cnn2c1OCCC2 [Example 26, N-((3,5-diisopropyl-1-methyl-1H-pyrazol-4-yl)carbamoyl)-6,7-dihydro-5H-pyrazolo[5,1-b][1,3]oxazine-3-sulfonamide] | – | < 5.00 | –
C=C(C)c1cncc(C(=C)C)c1NC(=O)NS(=O)(=O)c1cnn2c1OCCC2 [Example 27, N-((3,5-di(prop-1-en-2-yl)pyridin-4-yl)carbamoyl)-6,7-dihydro-5H-pyrazolo[5,1-b][1,3]oxazine-3-sulfonamide] | – | < 5.00 | –
O=C(Nc1c2c(n3c1CCC3)CCCC2=O)NS(=O)(=O)c1cnn2c1OCCC2 [Example 29, N-((8-oxo-2,3,5,6,7,8-hexahydro-1H-pyrrolo[1,2-a]indol-9-yl)carbamoyl)-6,7-dihydro-5H-pyrazolo[5,1-b][1,3]oxazine-3-sulfonamide] | – | < 5.00 | –
CC(C)(C)c1cc(NC(=O)NS(=O)(=O)c2cnn3c2OCCC3)n(C(C)(C)C)n1 [Example 36, N-((1,3-di-tert-butyl-1H-pyrazol-5-yl)carbamoyl)-6,7-dihydro-5H-pyrazolo[5,1-b][1,3]oxazine-3-sulfonamide, ammonia] | – | < 5.00 | –
Cc1cc(NC(=O)NS(=O)(=O)c2cnn3c2OCCC3)n(C(C)C)n1 [Example 43, N-((1-isopropyl-3-methyl-1H-pyrazol-5-yl)carbamoyl)-6,7-dihydro-5H-pyrazolo[5,1-b][1,3]oxazine-3-sulfonamide] | – | < 5.00 | –

SMILES | IC50 [1] | pIC50 | further results
CC1(C)COc2c(S(=O)(=O)NC(=O)NC3CCCCc4ccccc43)cnn2C1 (stereo not shown) [Example 46, 6,6-dimethyl-N-((6,7,8,9-tetrahydro-5H-benzo[7]annulen-5-yl)carbamoyl)-6,7-dihydro-5H-pyrazolo[5,1-b][1,3]oxazine-3-sulfonamide] | – | < 5.00 | –
CC1(C)CCc2ccccc2C1NC(=O)NS(=O)(=O)c1cnn2c1OCCC2 (stereo not shown) [drawing 366] | > 10 µM | – | –
O=C(NC1c2ccccc2CC12CCOCC2)NS(=O)(=O)c1cnn2c1OCCC2 (stereo not shown) [drawing 367] | > 10 µM | – | –
O=C(Nc1nc(Cl)cc(Cl)n1)NS(=O)(=O)c1cnn2c1OCCC2 [drawing 369] | > 10 µM | – | –
O=C(NC1c2ccccc2-c2ccccc21)NS(=O)(=O)c1cnn2c1OCCC2 [drawing 370] | > 10 µM | – | –
CC1Cc2ccccc2C1NC(=O)NS(=O)(=O)c1cnn2c1OCCC2 (stereo not shown) [drawing 371] | > 10 µM | – | –
O=C(Nc1c(-c2ccccc2)nc2ccccn12)NS(=O)(=O)c1cnn2c1OCCC2 [drawing 375] | > 10 µM | – | –
O=C(NC1(c2ccccc2)CCCCCC1)NS(=O)(=O)c1cnn2c1OCCC2 [drawing 377] | > 10 µM | – | –
O=C(NN1CCCCCC1)NS(=O)(=O)c1cnn2c1OCCC2 [drawing 379] | > 10 µM | – | –
O=C(NC(c1ccccc1)c1ccccc1)NS(=O)(=O)c1cnn2c1OCCC2 [drawing 380] | > 10 µM | – | –
CC(C)c1cc(Cl)nc(NC(=O)NS(=O)(=O)c2cnn3c2OCCC3)n1 [drawing 381] | > 10 µM | – | –
O=C(Nc1nc(-c2ccccc2)cc(C(F)(F)F)n1)NS(=O)(=O)c1cnn2c1OCCC2 [drawing 382] | > 10 µM | – | –
COc1cc(OC)nc(NC(=O)NS(=O)(=O)c2cnn3c2OCCC3)n1 [drawing 383] | – | – | IC50 (IL-1B pIC50 (μM)): > 10 µM
COc1cc(C)nc(NC(=O)NS(=O)(=O)c2cnn3c2OCCC3)n1 [drawing 384] | – | – | IC50 (IL-1B pIC50 (μM)): > 10 µM
Cc1ccc(Br)c(NC(=O)NS(=O)(=O)c2cnn3c2OCCC3)n1 [drawing 385] | > 10 µM | – | –
Cc1cc(C2CC2)nc(NC(=O)NS(=O)(=O)c2cnn3c2OCCC3)n1 [drawing 386] | > 10 µM | – | –
CC(C)(C)c1cc(C(C)(C)C)nc(NC(=O)NS(=O)(=O)c2cnn3c2OCCC3)n1 [drawing 387] | > 10 µM | – | –
O=C(Nc1nc(-c2ccccc2)cc2c1CCC2)NS(=O)(=O)c1cnn2c1OCCC2 [drawing 388] | > 10 µM | – | –
Cc1nc(NC(=O)NS(=O)(=O)c2cnn3c2OCCC3)nc2c1CCCC2 [drawing 389] | > 10 µM | – | –
Cc1cc(C)nc(NC(=O)NS(=O)(=O)c2cnn3c2OCCC3)n1 [drawing 390] | > 10 µM | – | –
